Test results as given in ChEMBL document CHEMBL5537113, “Discovery of 1,2-diaryl-3-oxopyrazolidin-4-carboxamides as a new class of MurA enzyme inhibitors and characterization of their antibacterial activity” (Eur J Med Chem, 2023).

Key:
[1] = test system: Clostridioides difficile; assay: Antibacterial activity against Clostridioides difficile NR-32903 assessed as reduction in microbial growth incubated for 48 hrs by broth microdilution method; assay type: functional
[2] = test system: Clostridioides difficile; assay: Antibacterial activity against Clostridioides difficile NR-49284 assessed as reduction in microbial growth incubated for 48 hrs by broth microdilution method; assay type: functional
[3] = test system: Clostridioides difficile; assay: Antibacterial activity against Clostridioides difficile NR-49283 assessed as reduction in microbial growth incubated for 48 hrs by broth microdilution method; assay type: functional
[4] = test system: Bifidobacterium longum; assay: Antibacterial activity against Bifidobacterium longum HM 846 assessed as reduction in microbial growth incubated for 48 hrs by broth microdilution method; assay type: functional
[5] = test system: Clostridioides difficile; assay: Antibacterial activity against Clostridioides difficile NR-13436 assessed as reduction in microbial growth incubated for 48 hrs by broth microdilution method; assay type: functional
[6] = test system: Clostridioides difficile; assay: Bactericidal activity against Clostridioides difficile NR-32895 assessed as reduction in microbial growth by broth microdilution method; assay type: functional
[7] = test system: Bifidobacterium breve; assay: Antibacterial activity against Bifidobacterium breve HM1120 assessed as reduction in microbial growth incubated for 48 hrs by broth microdilution method; assay type: functional
[8] = test system: Enterococcus faecalis; assay: Antibacterial activity against Enterococcus faecalis ATCC 51299 assessed as reduction in microbial growth by CLSI based broth microdilution method; assay type: functional
[9] = test system: Clostridioides difficile; assay: Antibacterial activity against Clostridioides difficile HM-88 assessed as reduction in microbial growth incubated for 48 hrs by broth microdilution method; assay type: functional
[10] = test system: Clostridioides difficile; assay: Antibacterial activity against Clostridioides difficile NR-49291 assessed as reduction in microbial growth incubated for 48 hrs by broth microdilution method; assay type: functional
[11] = test system: Clostridioides difficile; assay: Selectivity ratio of MBC for antibacterial activity against Clostridioides difficile NR-32904 to MIC for antibacterial activity against Clostridioides difficile NR-32904; assay type: functional
[12] = test system: Escherichia coli; assay: Antibacterial activity against Escherichia coli harboring tolC deletion mutant assessed as reduction in microbial growth incubated for 16 hrs by serial dilution method; assay type: functional
[13] = test system: Clostridioides difficile; assay: Antibacterial activity against Clostridioides difficile NR-32895 assessed as reduction in microbial growth incubated for 48 hrs by broth microdilution method; assay type: functional
[14] = test system: Lactobacillus gasseri; assay: Antibacterial activity against Lactobacillus gasseri HM 403 assessed as reduction in microbial growth incubated for 48 hrs by broth microdilution method; assay type: functional
[15] = test system: Clostridioides difficile; assay: Selectivity ratio of MBC for antibacterial activity against Clostridioides difficile NR-49278 to MIC for antibacterial activity against Clostridioides difficile NR-49278; assay type: functional
[16] = test system: Clostridioides difficile; assay: Selectivity ratio of MBC for antibacterial activity against Clostridioides difficile ATCC 43255 to MIC for antibacterial activity against Clostridioides difficile […]; assay type: functional
[17] = test system: Staphylococcus aureus; assay: Antibacterial activity against methicillin resistant Staphylococcus aureus NRS119 assessed as reduction in microbial growth by CLSI based broth microdilution method; assay type: functional
[18] = test system: Clostridioides difficile; assay: Antibacterial activity against Clostridioides difficile NR-32904 assessed as reduction in microbial growth incubated for 48 hrs by broth microdilution method; assay type: functional
[19] = test system: Clostridioides difficile; assay: Selectivity ratio of MBC for antibacterial activity against Clostridioides difficile NR-32895 to MIC for antibacterial activity against Clostridioides difficile NR-32895; assay type: functional
[20] = test system: Clostridioides difficile; assay: Antibacterial activity against Clostridioides difficile NR-49287 assessed as reduction in microbial growth incubated for 48 hrs by broth microdilution method; assay type: functional
[21] = test system: Clostridioides difficile; assay: Antibacterial activity against Clostridioides difficile NR-13427 assessed as reduction in microbial growth incubated for 48 hrs by broth microdilution method; assay type: functional
[22] = test system: Bacteroides fragilis; assay: Antibacterial activity against Bacteroides fragilis HM 718 assessed as reduction in microbial growth incubated for 48 hrs by broth microdilution method; assay type: functional
[23] = test system: Staphylococcus aureus; assay: Antibacterial activity against Staphylococcus aureus Newman D2C NCTC 10833 assessed as reduction in microbial growth incubated for 16 hrs by serial dilution method; assay type: functional
[24] = test system: Lactobacillus crispatus; assay: Antibacterial activity against Lactobacillus crispatus HM 103 assessed as reduction in microbial growth incubated for 48 hrs by broth microdilution method; assay type: functional
[25] = test system: Clostridioides difficile; assay: Antibacterial activity against Clostridioides difficile NR-49279 assessed as reduction in microbial growth incubated for 48 hrs by broth microdilution method; assay type: functional
[26] = test system: Clostridioides difficile; assay: Selectivity ratio of MBC for antibacterial activity against Clostridioides difficile NR-49284 to MIC for antibacterial activity against Clostridioides difficile NR-49284; assay type: functional
[27] = test system: Clostridioides difficile; assay: Bactericidal activity against Clostridioides difficile ATCC BAA1870 assessed as reduction in microbial growth by broth microdilution method; assay type: functional
[28] = test system: Bacteroides fragilis; assay: Antibacterial activity against Bacteroides fragilis HM 20 assessed as reduction in microbial growth incubated for 48 hrs by broth microdilution method; assay type: functional
[29] = test system: Clostridioides difficile; assay: Antibacterial activity against Clostridioides difficile NR-32889 assessed as reduction in microbial growth incubated for 48 hrs by broth microdilution method; assay type: functional
[30] = test system: Clostridioides difficile; assay: Bactericidal activity against Clostridioides difficile ATCC 43255 assessed as reduction in microbial growth by broth microdilution method; assay type: functional
[31] = test system: Clostridioides difficile; assay: Antibacterial activity against Clostridioides difficile NR-49288 assessed as reduction in microbial growth incubated for 48 hrs by broth microdilution method; assay type: functional
[32] = test system: Staphylococcus aureus; assay: Antibacterial activity against vancomycin resistant Staphylococcus aureus 10 assessed as reduction in microbial growth by CLSI based broth microdilution method; assay type: functional
[33] = test system: Bacteroides fragilis; assay: Antibacterial activity against Bacteroides fragilis HM 709 assessed as reduction in microbial growth incubated for 48 hrs by broth microdilution method; assay type: functional
[34] = test system: Streptococcus pneumoniae; assay: Antibacterial activity against Streptococcus pneumoniae ATCC 700677 assessed as reduction in microbial growth by CLSI based broth microdilution method; assay type: functional
[35] = test system: Bifidobacterium breve; assay: Antibacterial activity against Bifidobacterium breve HM 412 assessed as reduction in microbial growth incubated for 48 hrs by broth microdilution method; assay type: functional
[36] = test system: Clostridioides difficile; assay: Antibacterial activity against Clostridioides difficile ATCC BAA1870 assessed as reduction in microbial growth incubated for 48 hrs by broth microdilution method; assay type: functional
[37] = Stability of compound in LB broth medium at 10 uM incubated for 24 hrs at 37 degC by UHPLC-MS/MS analysis; assay type: physicochemical
[38] = test system: Clostridioides difficile; assay: Antibacterial activity against Clostridioides difficile NR-49282 assessed as reduction in microbial growth incubated for 48 hrs by broth microdilution method; assay type: functional
[39] = test system: Staphylococcus aureus; assay: Antibacterial activity against methicillin sensitive Staphylococcus aureus NRS107 assessed as reduction in microbial growth by CLSI based broth microdilution method; assay type: functional
[40] = test system: Staphylococcus aureus; assay: Antibacterial activity against methicillin resistant Staphylococcus aureus USA300 assessed as reduction in microbial growth by CLSI based broth microdilution method; assay type: functional
[41] = test system: Clostridioides difficile; assay: Antibacterial activity against Clostridioides difficile NR-49277 assessed as reduction in microbial growth incubated for 48 hrs by broth microdilution method; assay type: functional
[42] = test system: Clostridioides difficile; assay: Bactericidal activity against Clostridioides difficile NR-49278 assessed as reduction in microbial growth by broth microdilution method; assay type: functional
[43] = test system: Clostridioides difficile; assay: Antibacterial activity against Clostridioides difficile NR-49286 assessed as reduction in microbial growth incubated for 48 hrs by broth microdilution method; assay type: functional
[44] = test system: Clostridioides difficile; assay: Bactericidal activity against Clostridioides difficile NR-49284 assessed as reduction in microbial growth by broth microdilution method; assay type: functional
[45] = test system: Clostridioides difficile; assay: Selectivity ratio of MBC for antibacterial activity against Clostridioides difficile ATCC BAA1870 to MIC for antibacterial activity against Clostridioides difficile ATCC BAA1870; assay type: functional

Structure (SMILES): O=C(Nc1ncc([N+](=O)[O-])s1)C1CN(c2cccc(Cl)c2)N(c2cccc(Cl)c2)C1=O (stereo not given)
- MIC [1]: 0.5 µg/mL
- MIC [2]: 0.5 µg/mL
- MIC [3]: 0.5 µg/mL
- MIC [4]: 16 µg/mL
- MIC [5]: 0.5 µg/mL
- MBC [6]: 1 µg/mL
- MIC [7]: 64 µg/mL
- MIC [8]: > 64 µg/mL
- MIC [9]: 0.5 µg/mL
- MIC [10]: 1 µg/mL
- Ratio [11]: 1
- MIC [12]: > 40 µM
- MIC [13]: 0.5 µg/mL
- MIC [14]: > 64 µg/mL
- Ratio [15]: 1
- Ratio [16]: 1
- MIC [17]: 1 µg/mL
- MIC [18]: 0.5 µg/mL
- Ratio [19]: 1
- MIC [20]: 0.5 µg/mL
- MIC [21]: 0.5 µg/mL
- MIC [22]: 8 µg/mL
- MIC [23]: 10 µM
- MIC [24]: > 64 µg/mL
- MIC [25]: 0.25 µg/mL
- Ratio [26]: 1
- MBC [27]: 0.25 µg/mL
- MIC [28]: 4 µg/mL
- MIC [29]: 0.5 µg/mL
- MBC [30]: 0.25 µg/mL
- MIC [31]: 0.25 µg/mL
- MIC [32]: 4 µg/mL
- MIC [33]: 4 µg/mL
- MIC [34]: 4 µg/mL
- MIC [35]: 64 µg/mL
- MIC [36]: 0.25 µg/mL
- Stability [37]: Stable
- MIC [38]: 0.5 µg/mL
- MIC [39]: 2 µg/mL
- MIC [40]: 4 µg/mL
- MIC [41]: 0.5 µg/mL
- MBC [42]: 0.5 µg/mL
- MIC [43]: 0.5 µg/mL
- MBC [44]: 0.5 µg/mL
- Ratio [45]: 1

Structure (SMILES): O=C(Nc1ncc([N+](=O)[O-])s1)C1CN(c2ccc(Cl)cc2)N(c2ccc(Cl)cc2)C1=O (stereo not given)
- MIC [1]: 0.5 µg/mL
- MIC [2]: 0.5 µg/mL
- MIC [3]: 0.5 µg/mL
- MIC [4]: 32 µg/mL
- MIC [5]: 1 µg/mL
- MBC [6]: 1 µg/mL
- MIC [7]: > 64 µg/mL
- MIC [8]: > 64 µg/mL
- MIC [9]: 0.5 µg/mL
- MIC [10]: 1 µg/mL
- Ratio [11]: 1
- MIC [12]: > 40 µM
- MIC [13]: 1 µg/mL
- MIC [14]: > 64 µg/mL
- Ratio [15]: 1
- Ratio [16]: 1
- MIC [17]: 64 µg/mL
- MIC [18]: 0.5 µg/mL
- Ratio [19]: 1
- MIC [20]: 0.5 µg/mL
- MIC [21]: 0.5 µg/mL
- MIC [22]: 8 µg/mL
- MIC [23]: 10 µM
- MIC [24]: > 64 µg/mL
- MIC [25]: 0.5 µg/mL
- Ratio [26]: 1
- MBC [27]: 0.5 µg/mL
- MIC [28]: 8 µg/mL
- MIC [29]: 0.25 µg/mL
- MBC [30]: 0.5 µg/mL
- MIC [31]: 0.25 µg/mL
- MIC [32]: > 64 µg/mL
- MIC [33]: 4 µg/mL
- MIC [34]: 64 µg/mL
- MIC [35]: > 64 µg/mL
- MIC [36]: 0.5 µg/mL
- Stability [37]: Stable
- MIC [38]: 0.5 µg/mL
- MIC [39]: 64 µg/mL
- MIC [40]: 32 µg/mL
- MIC [41]: 1 µg/mL
- MBC [42]: 0.5 µg/mL
- MIC [43]: 0.5 µg/mL
- MBC [44]: 0.5 µg/mL
- Ratio [45]: 1
